Laboratory results from patent US7041699B2, “Nutrient pharmaceutical formulation comprising polyphenols and use in treatment of cancer” (Matthias Rath, priority 2002, dated 2006).

Tests used:
[1] = system: MDA-MB 231 human breast cancer cells; experiment: Matrigel invasion and migration, MDA-MB-231
Description: The studies were conducted using Matrigel (Becton Dickinson) inserts in compatible 24-well plates. Fibroblasts were seeded and grown in the wells of the plate using DMEM. When fibroblasts reached confluence, the medium was withdrawn and replaced with 750 μl of the media designated for the treatment. The cancer cells (5×10^4) suspended in 250 μl of the medium supplemented with nutrients as specified in the design of the experiment were seeded on the insert in the well. Thus both the medium on the insert and in the well contained the same supplements. The plates with the inserts were then incubated (in air-circulating incubator for MDA-MB-231 cells and 5% CO2 incubator for colon cancer cells and melanoma cells) for 18–20 hours. After incubation, the media from the wells was withdrawn. The cells on the upper surface of the inserts were gently scrubbed away with cotton swab. The cells that had penetrated the Matrigel membrane and had migrated on the lower surface of the Matrigel were stained with hemacolor stain (EM Sciences) and were visually counted under the microscope. The results were subjected to ANOVA and all the possible pairs were tested for significance at p<0.05.
The media in different studies were supplemented with ascorbic acid, proline, lysine and EGCG at concentrations as indicated.
MDA-MB 231 (ATCC) breast cancer cells were seeded on Matrigel insert in an improved Matrigel Invasion Chamber (BD). Conditioned media from normal human dermal fibroblast (Clonetics) supplemented with various agents (as indicated on FIG. 1) were added to the well. The chamber was incubated for 24 hours and the cells that had invaded the Matrigel membrane and had migrated into the lower surface of the membrane were counted.

[2] = system: human breast cancer cells MDA-MB-231; experiment: MTT cell proliferation/growth, breast cancer MDA-MB-231
[3] = system: HCT116 human colon cancer cells; experiment: Matrigel invasion and migration, HCT116; assay type: cell-based
Description: The studies were conducted using Matrigel (Becton Dickinson) inserts in compatible 24-well plates. Fibroblasts were seeded and grown in the wells of the plate using DMEM. When fibroblasts reached confluence, the medium was withdrawn and replaced with 750 μl of the media designated for the treatment. The cancer cells (5×10^4) suspended in 250 μl of the medium supplemented with nutrients as specified in the design of the experiment were seeded on the insert in the well. Thus both the medium on the insert and in the well contained the same supplements. […] After incubation, the media from the wells was withdrawn. The cells on the upper surface of the inserts were gently scrubbed away with cotton swab. The cells that had penetrated the Matrigel membrane and had migrated on the lower surface of the Matrigel were stained with hemacolor stain (EM Sciences) and were visually counted under the microscope. The results were subjected to ANOVA and all the possible pairs were tested for significance at p<0.05. […]
HTCT116 (ATCC) human colon cancer cells were seeded on Matrigel insert in an improved Matrigel Invasion Chamber (BD). […] The chamber was incubated for 24 hours and the cells that had invaded the Matrigel membrane and had migrated into the lower surface of the membrane were counted.

[4] = system: human melanoma cell line A2058; experiment: MTT cell proliferation/growth, melanoma cells
MMP-2 and MMP-9 = experiment: Gelatinase zymography, melanoma cells; assay type: cell-based, human; conditions: overall / dose dependence
Description: Gelatinase zymography was performed in 10% Novex pre-cast polyacrylamide gel (Invitrogen) in the presence of 0.1% gelatin. Culture media (20 μl) was loaded and SDS-PAGE was performed with tris-glysine SDS buffer. After electrophoresis, the gels were washed with 5% Triton X-100 for 30 minutes and stained. Protein standards were run concurrently and approximate molecular weights were determined.
The effect of EGCG on melanoma cells with basal and ascorbic acid, proline, and lysine supplementation on expression of MMPs is depicted in FIG. 9 by gelatinase zymography. […] The intensity of bands for basal and ascorbic acid, lysine and proline combination were the same.

[5] = system: A2058 human melanoma cells; experiment: Matrigel invasion and migration, melanoma cells; assay type: cell-based; conditions: conditioned media from NHDF, 24 hours
Description: The studies were conducted using Matrigel (Becton Dickinson) inserts in compatible 24-well plates. Fibroblasts were seeded and grown in the wells of the plate using DMEM. When fibroblasts reached confluence, the medium was withdrawn and replaced with 750 μl of the media designated for the treatment. The cancer cells (5×10^4) suspended in 250 μl of the medium supplemented with nutrients as specified in the design of the experiment were seeded on the insert in the well. Thus both the medium on the insert and in the well contained the same supplements. The plates with the inserts were then incubated (in air-circulating incubator for MDA-MB-231 cells and 5% CO2 incubator for colon cancer cells and melanoma cells) for 18–20 hours. After incubation, the media from the wells was withdrawn. The cells on the upper surface of the inserts were gently scrubbed away with cotton swab. The cells that had penetrated the Matrigel membrane and had migrated on the lower surface of the Matrigel were stained with hemacolor stain (EM Sciences) and were visually counted under the microscope. […]
A2058 (ATCC) human melanoma cells were seeded on Matrigel insert in improved Matrigel Invasion Chamber (BD). […] The chamber was incubated for 24 hours and the cells that had invaded the Matrigel membrane and had migrated into the lower surface of the membrane were counted.

| Compound | Matrigel invasion and migration (FIG. 1) ([1]; MDA-MB 231, conditioned media from NHDF, 24 hours) | Matrigel invasion (number of invading cells) compared to non-supplemented media ([1]; MDA-MB-231, EGCG 20 μg/ml) | Matrigel invasion ([1]; MDA-MB-231, EGCG 50 μg/ml and 100 μg/ml) | cell number compared to control ([2]; EGCG 50 μg/ml) | cell number compared to control ([2]; EGCG 100 μg/ml) | cell number compared to control ([2]; EGCG 200 μg/ml) | cell number compared to unsupplemented controls ([2]; EGCG up to 20 μg/ml) | Matrigel invasion of colon cancer cells (reduced to) ([3]; EGCG 20 μg/ml) | Matrigel invasion and migration (FIG. 2) ([3]; conditioned media from NHDF, 24 hours) | cell proliferation (cell number, Basal = 100) ([4]; EGCG 50 μg/ml) | cell proliferation (cell number, Basal = 100) ([4]; EGCG 10 and 20 μg/ml) | expression of MMP-2 and MMP-9 (zymography bands) (MMP-2 and MMP-9) | Matrigel invasion and migration (FIG. 3) [5] | invasion reduced by ([1]; MDA-MB-231, another series, 100 μM ascorbic acid, 140 μM proline) |
| --- | --- | --- | --- | --- | --- | --- | --- | --- | --- | --- | --- | --- | --- | --- |
| O=C(O[C@@H]1Cc2c(O)cc(O)cc2O[C@@H]1c1cc(O)c(O)c(O)c1)c1cc(O)c(O)c(O)c1 [EGCG, (−)-epigallocatechin-3-gallate] | inhibitory effect | 69.5±27.4% | complete inhibition | 66.1±5.3% | 33.6±2% | 29.6±0.8% | did not have any significant inhibitory effect | 44.9±3.3% | inhibitory effect | 30% | Neither lysine, proline, and ascorbic acid nor EGCG at 10 and 20 μg/ml had any significant effect | inhibitory effect on their expression in a dose dependent fashion | inhibitory effect |  |
| O=C1O[C@H]([C@@H](O)CO)C(O)=C1O [ascorbic acid] |  |  |  |  |  |  |  |  |  |  |  |  |  | 36% |
